Our source for the IC50 values is patent US12371454B2, “Cyclic peptide compound having Kras inhibitory action” (priority 2019, dated 2025).

Starred links: 1 amine or outer side, 2 acyl side, 3 side chain; linkers in the order of their positions; H or OH if unused. Positions of bridges follow the written chain, without caps; N, C: chain ends. Non-standard residues stand in square brackets, D forms with d. Residues, ends and D or L forms follow the SMILES beside them. *: point of attachment. hPhe(3-Cl-4-CF3) = N[C@@H](CCc1ccc(C(F)(F)F)c(Cl)c1)C(=O)O; hPhe(3-F,4-CF3) = N[C@@H](CCc1ccc(C(F)(F)F)c(F)c1)C(=O)O; X12 = CN([C@@H](Cc1ccc(C(F)(F)F)nc1)C(=O)[*:2])[*:1]; hPhe(4-CF3) = N[C@@H](CCc1ccc(C(F)(F)F)cc1)C(=O)O; NMePhe(4-Cl) = CN[C@@H](Cc1ccc(Cl)cc1)C(=O)O; Phe(3,5-F2) = N[C@@H](Cc1cc(F)cc(F)c1)C(=O)O; NMePhe(4-Me) = CN[C@@H](Cc1ccc(C)cc1)C(=O)O; NMeGly(cPent) = CN[C@H](C(=O)O)C1CCCC1; Phe(3-I) = N[C@@H](Cc1cccc(I)c1)C(=O)O; NMeCha = CN[C@@H](CC1CCCCC1)C(=O)O; NMeGly(cPr) = CN[C@H](C(=O)O)C1CC1; NMeChg = CN[C@H](C(=O)O)C1CCCCC1; NMeF = CN[C@@H](Cc1ccccc1)C(=O)O; NMeI = CC[C@H](C)[C@H](NC)C(=O)O; hPhe = N[C@@H](CCc1ccccc1)C(=O)O; NMeD = CN[C@@H](CC(=O)O)C(=O)O; NMeL = CN[C@@H](CC(C)C)C(=O)O; NMeV = CN[C@H](C(=O)O)C(C)C; d(β3hA) = C[C@@H](N)CC(=O)O; NMeS = CN[C@@H](CO)C(=O)O; Morpholide = C1CN(*)CCO1; NMeA = CN[C@@H](C)C(=O)O; NMeAib = CNC(C)(C)C(=O)O; Piperidide = C1CCN(*)CC1; Pyrrolidide = C1CCN(*)C1; Ac5c = NC1(C(=O)O)CCCC1; Aze = O=C(O)[C@@H]1CCN1; Sar = CNCC(=O)O; Propyl = CCC*

T1 sequence (P01116 1-188 isoform P01116-2 G12D): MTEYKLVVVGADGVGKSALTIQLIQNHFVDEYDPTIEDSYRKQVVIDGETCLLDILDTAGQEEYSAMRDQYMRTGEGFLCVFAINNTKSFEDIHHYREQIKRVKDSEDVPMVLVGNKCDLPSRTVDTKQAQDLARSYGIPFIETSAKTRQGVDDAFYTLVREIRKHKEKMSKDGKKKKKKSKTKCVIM

This test concerns the target T1, Kras and SOS1 (biotin-tagged human Kras loaded with GDP, His-tagged human SOS1) (Homo sapiens, UniProt P01116, G12D).
T1 construct: made in house; host or cells: E. coli (stated for Kras only)
As to the kind of experiment: Protein-protein interaction inhibition between Kras and SOS1 (KrasGl2D-SOS PPI) using AlphaScreen. The test is classed as binding. As to conditions: AlphaScreen; biotin-tagged human Kras loaded with GDP, His-tagged human SOS1; read-out: KRAS G12D-SOS PPI IC50. The method, then: Protein-Protein Interaction Inhibition Between Kras and SOS1 (KrasGl2D-SOS PPI) Using AlphaScreen
Protein-protein interaction inhibition (PPI) between Kras and SOS1 was measured by energy transfer from nickel-conjugated donor beads to streptavidin-conjugated acceptor beads using biotin-tagged human Kras expressed in E. coli and loaded with GDP after purification and His-tagged human SOS1 enzyme. This measurement utilizes the phenomenon in which donor beads are irradiated with light at 680 nm, such that energy is transferred to acceptor beads through singlet oxygen and light at 520-620 nm is detected from the acceptor beads.
Inhibition of binding between K-ras and SOS1 is known to inhibit signaling downstream of Kras.
Background: Alpha assays give light when donor and acceptor beads are brought close together.
In general, IC50 refers to the concentration needed to halve the response being measured. For the compound `CC[C@H](C)[C@@H]1NC(=O)[C@H](CC(C)C)N(C)C(=O)C[C@@H](C(=O)N(C)C)N(C)C(=O)[C@H]([C@@H](C)CC)N(C)C(=O)[C@H](C(C)C)NC(=O)[C@H](C)N(C)C(=O)[C@H](CCc2ccc(C(F)(F)F)c(Cl)c2)NC(=O)CN(C)C(=O)[C@H](Cc2ccc(C)cc2)N(C)C(=O)[C@@H]2CCN2C(=O)[C@H](C)N(C)C1=O` [Compound 4] ([NMeL]I[NMeA][Aze][NMePhe(4-Me)][Sar][hPhe(3-Cl-4-CF3)][NMeA]V[NMeI][NMeD]-NMe2; lactam N-11), the IC50 turned out to be 13 nM.
In the case of `CC[C@H](C)[C@@H]1NC(=O)[C@H](CC(C)C)N(C)C(=O)C[C@@H](C(=O)N2CCCCC2)N(C)C(=O)[C@H](C2CCCCC2)N(C)C(=O)C2(CCCC2)NC(=O)[C@H](Cc2ccc(C(F)(F)F)nc2)N(C)C(=O)[C@H](CCc2ccc(C(F)(F)F)c(Cl)c2)NC(=O)CN(C)C(=O)[C@H](CC2CCCCC2)N(C)C(=O)[C@@H]2CCN2C(=O)CN(C)C1=O` [Compound 6] ([NMeL]I[Sar][Aze][NMeCha][Sar][hPhe(3-Cl-4-CF3)][X12][Ac5c][NMeChg][NMeD]-Piperidide; lactam N-11), the IC50 came out at 13 nM.
Regarding `COC[C@@H]1NC(=O)[C@H](CC(C)C)N(C)C(=O)C[C@@H](C(=O)N2CCCCC2)N(C)C(=O)[C@H](C(C)C)N(C)C(=O)C2(CCCC2)NC(=O)[C@@H]2CCCN2C(=O)[C@H](CCc2ccc(C(F)(F)F)c(Cl)c2)NC(=O)CN(C)C(=O)[C@H](CC2CCCCC2)N(C)C(=O)[C@@H]2CCN2C(=O)[C@H](C)N(C)C1=O` [Compound 7] ([NMeL]S(Me)[NMeA][Aze][NMeCha][Sar][hPhe(3-Cl-4-CF3)]P[Ac5c][NMeV][NMeD]-Piperidide; lactam N-11), the IC50 was found to be 18 nM.
On to `CCCOC[C@H]1C(=O)N(C)CC(=O)N[C@@H](CCc2ccc(C(F)(F)F)c(F)c2)C(=O)N2CCC[C@H]2C(=O)NC2(CCCC2)C(=O)N(C)[C@@H](C2CCCC2)C(=O)N(C)[C@H](C(=O)N2CCOCC2)CC(=O)N(C)[C@@H](CC(C)C)C(=O)N[C@@H]([C@@H](C)CC)C(=O)N(C)[C@@H](C)C(=O)N2CC[C@H]2C(=O)N1C` [Compound 9, (5S,8S,11S,15S,18S,23aS,29S,35S,37aS)-8-((S)-sec-butyl)-18-cyclopentyl-29-(3-fluoro-4-(trifluoromethyl)phenethyl)-11-isobutyl-5,6,12,16,19,33,36-heptamethyl-15-(morpholine-4-carbonyl)-35-(propoxymethyl)docosahydro-2H,4H-spiro[azeto[2,1-u]pyrrolo[2,1-i][1,4,7,10,13,16,19,22,25,28,31]undecaazacyclotetratriacontine-21,1′-cyclopentan]-4,7,10,13,17,20,23,28,31,34,37(14H,22H)-undecaone] ([NMeL]I[NMeA][Aze][NMeS](Propyl)[Sar][hPhe(3-F,4-CF3)]P[Ac5c][NMeGly(cPent)][NMeD]-Morpholide; lactam N-11), for which the IC50 came to 1.5 nM.
For the compound `CC[C@H](C)[C@@H]1NC(=O)[C@H](CC(C)C)N(C)C(=O)C[C@@H](C(=O)N2CCCCC2)N(C)C(=O)[C@H](CC(C)C)NC(=O)C(C)(C)N(C)C(=O)[C@H](CCc2ccccc2)NC(=O)[C@H](Cc2cccc(I)c2)NC(=O)CN(C)C(=O)[C@H](Cc2ccc(C)cc2)N(C)C(=O)CN(C)C(=O)CN(C)C1=O` [Compound 13] ([NMeL]I[Sar][Sar][NMePhe(4-Me)][Sar][Phe(3-I)][hPhe][NMeAib]L[NMeD]-Piperidide; lactam N-11), the IC50 was 38 nM.
Take `CC[C@H](C)[C@@H]1NC(=O)[C@H](CC(C)C)N(C)C(=O)C[C@@H](C)NC(=O)[C@H](C2CC2)N(C)C(=O)C2(CCCC2)NC(=O)[C@@H]2CCCN2C(=O)[C@H](CCc2ccc(C(F)(F)F)c(Cl)c2)NC(=O)CN(C)C(=O)[C@H](CC2CCCCC2)N(C)C(=O)CN(C)C(=O)CN(C)C1=O` [Compound 14] (cyclo([Ac5c][NMeGly(cPr)][d(β3hA)][NMeL]I[Sar][Sar][NMeCha][Sar][hPhe(3-Cl-4-CF3)]P)): the 50% inhibitory concentration (IC50) was determined as 110 nM.
Take `CC[C@H](C)[C@@H]1NC(=O)[C@H](C)N(C)C(=O)C[C@@H](C)NC(=O)[C@H](CC(C)C)N(C)C(=O)[C@H](Cc2ccccc2)N(C)C(=O)[C@@H]2CCCN2C(=O)[C@H](CCc2ccc(C(F)(F)F)cc2)NC(=O)CN(C)C(=O)[C@H]([C@@H](C)CC)N(C)C(=O)CN(C)C(=O)CN(C)C1=O` [Compound 18] (cyclo(I[Sar][Sar][NMeI][Sar][hPhe(4-CF3)]P[NMeF][NMeL][d(β3hA)][NMeA])): the IC50 is 230 nM.
In the case of `CC[C@H](C)[C@@H]1NC(=O)[C@H](C)N(C)C(=O)C[C@@H](C(=O)N2CCCC2)NC(=O)[C@H](C(C)C)N(C)C(=O)[C@H](Cc2ccccc2)N(C)C(=O)[C@H](Cc2ccccc2)NC(=O)[C@H](Cc2cc(F)cc(F)c2)NC(=O)CN(C)C(=O)[C@H](Cc2ccc(Cl)cc2)N(C)C(=O)CN(C)C(=O)CN(C)C1=O` [Compound 21] ([NMeA]I[Sar][Sar][NMePhe(4-Cl)][Sar][Phe(3,5-F2)]F[NMeF][NMeV]D-Pyrrolidide; lactam N-11), the IC50 was found to be 250 nM.
